Assays:
[1] = molecular target: T1, Sphingosine-1-phosphate lyase 1 (Homo sapiens, UniProt O95470); assay: biochemical
T1 sequence (O95470 whole entry): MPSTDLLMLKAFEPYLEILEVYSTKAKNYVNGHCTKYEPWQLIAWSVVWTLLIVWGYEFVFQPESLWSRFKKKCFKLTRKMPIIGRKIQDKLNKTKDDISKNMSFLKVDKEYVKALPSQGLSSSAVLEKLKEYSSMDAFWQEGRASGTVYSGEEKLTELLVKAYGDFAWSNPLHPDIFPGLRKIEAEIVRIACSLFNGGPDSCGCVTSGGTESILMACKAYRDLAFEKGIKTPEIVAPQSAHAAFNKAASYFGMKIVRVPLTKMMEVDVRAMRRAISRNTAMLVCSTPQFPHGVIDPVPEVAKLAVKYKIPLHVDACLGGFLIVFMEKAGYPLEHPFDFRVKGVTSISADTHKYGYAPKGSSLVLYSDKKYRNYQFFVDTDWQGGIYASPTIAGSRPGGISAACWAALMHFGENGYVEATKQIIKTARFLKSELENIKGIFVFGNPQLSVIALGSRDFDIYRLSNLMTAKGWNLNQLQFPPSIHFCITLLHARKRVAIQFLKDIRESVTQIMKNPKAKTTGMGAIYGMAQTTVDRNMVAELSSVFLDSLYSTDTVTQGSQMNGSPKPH
Description: Inhibition of human recombinant S1PL (62 to 568) expressed in Sf9 insect cells using S1P as substrate after 1 hr

[2] = molecular target: Protein smoothened (Homo sapiens, UniProt Q99835); assay: Antagonist activity at smoothened (unknown origin)
Protein smoothened, sequence (Q99835 whole entry): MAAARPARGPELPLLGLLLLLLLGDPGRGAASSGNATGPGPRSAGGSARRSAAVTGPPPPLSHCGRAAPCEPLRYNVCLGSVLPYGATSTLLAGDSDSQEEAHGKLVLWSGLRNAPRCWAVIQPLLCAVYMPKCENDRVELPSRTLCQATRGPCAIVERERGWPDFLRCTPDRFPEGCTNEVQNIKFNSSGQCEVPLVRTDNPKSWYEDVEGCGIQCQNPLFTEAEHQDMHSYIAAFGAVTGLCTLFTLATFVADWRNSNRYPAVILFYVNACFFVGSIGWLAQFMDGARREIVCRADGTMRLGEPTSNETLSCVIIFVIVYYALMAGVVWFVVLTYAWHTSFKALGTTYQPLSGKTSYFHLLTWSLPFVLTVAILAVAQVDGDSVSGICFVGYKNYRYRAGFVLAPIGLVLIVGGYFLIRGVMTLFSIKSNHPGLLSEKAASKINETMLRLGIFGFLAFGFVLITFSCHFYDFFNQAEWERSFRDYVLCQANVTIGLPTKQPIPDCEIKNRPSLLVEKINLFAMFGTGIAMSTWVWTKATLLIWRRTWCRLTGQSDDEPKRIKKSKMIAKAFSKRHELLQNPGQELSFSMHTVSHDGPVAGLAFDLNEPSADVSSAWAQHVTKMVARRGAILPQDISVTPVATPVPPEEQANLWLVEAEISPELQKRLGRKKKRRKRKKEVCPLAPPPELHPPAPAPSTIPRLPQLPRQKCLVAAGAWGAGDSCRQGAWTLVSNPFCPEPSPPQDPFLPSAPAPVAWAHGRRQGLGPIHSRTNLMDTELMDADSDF

[3] = Drug level in blood of incomplete Freund's adjuvant-induced autoimmune encephalomyelitis DA rat model at 2 mg/kg, po bid administered 2 days before the induction of EAE; assay type: organism-based; set-up: dose 2 mg/kg, route oral; conditions: whole blood, read-out: Drug uptake
[4] = tested on: Rattus norvegicus; assay: Reduction of peripheral CD4+ T cell level in Wistar rat at 50 mg/kg, po after 14 to 24 hrs by flow cytometry analysis; assay type: functional; set-up: scale not given: the % may be the effect or the level left
[5] = Drug level in brain of incomplete Freund's adjuvant-induced autoimmune encephalomyelitis DA rat model at 2 mg/kg, po bid administered 2 days before the induction of EAE; assay type: organism-based; set-up: dose 2 mg/kg, route oral; conditions: read-out: Drug uptake
[6] = Oral bioavailability in Sprague-Dawley rat at 3 mg/kg; assay type: ADME, organism-based; conditions: in vivo
[7] = tested on: Rattus norvegicus; assay: Reduction of peripheral B cell level in Wistar rat at 2 mg/kg, po administered ever 12 hrs for 4 times measured 12 hrs after last dose by flow cytometry analysis; assay type: functional; set-up: scale not given: the % may be the effect or the level left
[8] = tested on: Rattus norvegicus; assay: Reduction of peripheral CD4+ and CD8+ T cell level in Wistar rat at 2 mg/kg, po administered ever 12 hrs for 4 times measured 12 hrs after last dose by flow cytometry analysis; assay type: functional; set-up: scale not given: the % may be the effect or the level left
[9] = Blood clearance in Sprague-Dawley rat at 1 mg/kg, iv; assay type: ADME, organism-based; set-up: dose 1 mg/kg, route intravenous; conditions: whole blood
[10] = AUC (0 to infinity) in Sprague-Dawley rat at 3 mg/kg, po; assay type: ADME, organism-based, Plasma; set-up: time infinity, dose 3 mg/kg, route oral; conditions: blood
[11] = Plasma concentration in Wistar rat at 2 mg/kg, po administered ever 12 hrs for 4 times measured 12 hrs after last dose; assay type: ADME, organism-based; set-up: dose 2 mg/kg, route oral
[12] = tested on: Rattus norvegicus; assay: Antiinflammatory activity in incomplete Freund's adjuvant-induced autoimmune encephalomyelitis DA rat model assessed as S1P level in lymph node at 2 mg/kg, po bid administered 2 days before the induction of EAE relative to control; assay type: functional
[13] = tested on: Rattus norvegicus; assay: Antiinflammatory activity in incomplete Freund's adjuvant-induced autoimmune encephalomyelitis DA rat model assessed as S1P level in brain at 2 mg/kg, po bid administered 2 days before the induction of EAE; assay type: functional
[14] = Tmax in Sprague-Dawley rat at 3 mg/kg, po; assay type: ADME, organism-based; set-up: dose 3 mg/kg, route oral; conditions: in vivo
[15] = Cmax in Sprague-Dawley rat at 3 mg/kg, po; assay type: ADME, organism-based; set-up: dose 3 mg/kg, route oral; conditions: in vivo
[16] = Half life in Sprague-Dawley rat at 1 mg/kg, iv; assay type: ADME, organism-based; set-up: dose 1 mg/kg, route intravenous; conditions: in vivo
[17] = molecular target: T1, Sphingosine-1-phosphate lyase 1; assay: Inhibition of S1PL (unknown origin)

CCOC(=O)c1ccc(N2CCN(c3nnc(Cc4ccccc4)c4ccccc34)C[C@H]2C)nc1
IC50 [1]: 3.4 µM

C[C@@H]1CN(c2nnc(Cc3ccccc3)c3ccccc23)CCN1c1ccc(C(F)(F)F)cn1
IC50 [1]: 30 µM

C[C@@H]1CN(c2nnc(Cc3ccccc3)c3ccccc23)CCN1c1ccc([N+](=O)[O-])cn1
IC50 [1]: 0.74 µM

C[C@@H]1CN(c2nnc(Cc3ccccc3)c3ccccc23)CCN1c1ccc(C(=O)O)cn1
IC50 [1]: > 30 µM

CC[C@@H]1CN(c2nnc(Cc3ccccc3)c3ccccc23)CCN1c1ccc(C#N)cn1
IC50 [1]: 1.7 µM

CC(C)[C@@H]1CN(c2nnc(Cc3ccccc3)c3ccccc23)CCN1c1ccc(C#N)cn1
IC50 [1]: 2.5 µM

C[C@@H]1CN(c2nnc(Cl)c3ccccc23)CCN1c1ccc(C#N)cn1
IC50 [1]: > 30 µM

C[C@@H]1CN(c2nnc(-c3ccccc3)c3ccccc23)CCN1c1ccc(C#N)cn1
IC50 [1]: > 30 µM

C[C@@H]1CN(c2nnc(CCc3ccccc3)c3ccccc23)CCN1c1ccc(C#N)cn1
IC50 [1]: 30 µM

C[C@@H]1CN(c2nnc(Cc3ccccc3)c3cc(Cl)ccc23)CCN1c1ccc(C#N)cn1
IC50 [1]: 2.3 µM

C[C@@H]1CN(c2nnc(Cc3ccccc3)c3ccc(Cl)cc23)CCN1c1ccc(C#N)cn1
IC50 [2]: 0.44 µM
concentration at 48 h [3]: 840 nM
Activity [4]: >80%
IC50 [1]: 0.21 µM
concentration at 48 h [5]: 610 nM
bioavailability [6]: 26%
Activity [7]: 70%
Activity [8]: >95%
clearance [9]: 23 mL/min/kg
AUC(0-inf) [10]: 1.3 µM·h
concentration at 12 h [11]: 400 nM
fold change (FC) [12]: 150
Activity [13]: 2.4 pmol/mg
Tmax [14]: 5 h
Cmax [15]: 99 nM
half-life [16]: 9.1 h

C[C@@H]1CN(c2nnc(Cc3ccccc3)c3cc(C(F)(F)F)ccc23)CCN1c1ccc(C#N)cn1
IC50 [1]: 12 µM

C[C@@H]1CN(c2nnc(Cc3ccccc3)c3ccc(C(F)(F)F)cc23)CCN1c1ccc(C#N)cn1
IC50 [1]: 0.1 µM

C[C@@H]1CN(c2nnc(Cc3ccccc3)c3cc(C#N)ccc23)CCN1c1ccc(C#N)cn1
IC50 [1]: 1.3 µM

C[C@@H]1CN(c2nnc(Cc3ccccc3)c3ccc(C#N)cc23)CCN1c1ccc(C#N)cn1
IC50 [2]: > 25 µM

CC(=O)c1nc([C@@H](O)[C@H](O)[C@H](O)CO)c[nH]1
IC50 [17]: > 100 µM

C[C@H]1CN(c2nnc(Cc3ccccc3)c3ccccc23)CCN1c1ccc(C#N)cn1
IC50 [1]: > 30 µM

C[C@@H]1CN(c2nnc(Cc3ccccc3)c3ccccc23)CCN1c1ccc(C#N)cn1
IC50 [1]: 2.4 µM

N#Cc1ccc(N2CCN(c3nnc(Cc4ccccc4)c4ccccc34)CC2)nc1
IC50 [1]: > 30 µM

N#Cc1ccc(N2CCN(c3nnc(Cc4ccccc4)c4ccccc34)CC2CO)nc1 (single isomer, unassigned)
IC50 [1]: > 30 µM

CCCCCCCCc1ccc(CCC(N)(CO)CO)cc1 [FINGOLIMOD]
IC50 [1]: 17 µM
IC50 [17]: 17 µM

C/C(=N\O)c1nc([C@@H](O)[C@H](O)[C@H](O)CO)c[nH]1 [LX-2931]
IC50 [17]: > 100 µM
